# According to the supplement of paper PMC13380429:
# ± gives the standard deviation of the averaged measurements.
# Assays:
# Conditions in all cases: 72 h
# [1] = tested on: HepG2; assay: drug sensitivity score (DSS) for viability; higher = more toxic; extreme values may be limits of the assay
# [2] = tested on: Caco-2; assay: as above
# [3] = tested on: U2OS; assay: as above
# [4] = tested on: Calu-3; assay: as above
# [5] = tested on: Vero E6; assay: as above
# [6] = tested on: HepG2; assay: cell viability relative to DMSO; higher = less toxic
# [7] = tested on: Caco-2; assay: as above
# [8] = tested on: U2OS; assay: as above
# [9] = tested on: Calu-3; assay: as above
# [10] = tested on: Vero E6; assay: as above
# [11] = tested on: HepG2; assay: relative viability EC50 (midpoint between 100% and the lowest measured viability); higher = less toxic
# [12] = tested on: Caco-2; assay: as above
# [13] = tested on: U2OS; assay: as above
# [14] = tested on: Calu-3; assay: as above
# [15] = tested on: Vero E6; assay: as above
Structure (SMILES),drug sensitivity score [1],drug sensitivity score [2],drug sensitivity score [3],drug sensitivity score [4],drug sensitivity score [5],cell viability ([6]; 1 nM),cell viability ([6]; 10 nM),cell viability ([6]; 100 nM),cell viability ([6]; 1000 nM),cell viability ([6]; 10000 nM),cell viability ([7]; 1 nM),cell viability ([7]; 10 nM),cell viability ([7]; 100 nM),cell viability ([7]; 1000 nM),cell viability ([7]; 10000 nM),cell viability ([8]; 1 nM),cell viability ([8]; 10 nM),cell viability ([8]; 100 nM),cell viability ([8]; 1000 nM),cell viability ([8]; 10000 nM),cell viability ([9]; 1 nM),cell viability ([9]; 10 nM),cell viability ([9]; 100 nM),cell viability ([9]; 1000 nM),cell viability ([9]; 10000 nM),cell viability ([10]; 1 nM),cell viability ([10]; 10 nM),cell viability ([10]; 100 nM),cell viability ([10]; 1000 nM),cell viability ([10]; 10000 nM),relative viability EC50 [11],relative viability EC50 [12],relative viability EC50 [13],relative viability EC50 [14],relative viability EC50 [15]
CN(Cc1ccccc1)C(=O)[C@H](Cc1ccc2ccccc2c1)NC(=O)[C@@H]1CCCN1C(=O)Nc1ccccc1[N+](=O)[O-] [SDZ-NKT-343],0,1.7,0,0,0,102%,93.9%,103%,93.6%,92.2%,96.3%,97.3%,96.1%,89%,75.1%,105%,103%,101%,106%,87.3%,95%,93.7%,98.9%,97.3%,90.7%,102%,98.7%,106%,97.7%,99.2%,> 10 µM,> 10 µM,> 10 µM,> 10 µM,> 10 µM
COc1cn(-c2ccc(-n3cccn3)cc2F)nc(-c2ccnn2-c2ccccc2)c1=O [TAK-063],0,0,0,0,0,99.7%,95.5%,102%,105%,106%,88.1%,95.7%,91.1%,97.4%,105%,97.3%,99.6%,97.1%,101%,102%,92.1%,95.4%,98.8%,102%,109%,91.7%,97.3%,103%,90%,104%,> 10 µM,> 10 µM,> 10 µM,> 10 µM,> 10 µM
COc1cc2c(NC3CCN(C)CC3)nc(N3CCCN(C)CC3)nc2cc1OCCCN(C)C [UNC0224],0,0,0,0,0,90.3%,97.4%,98.8%,101%,95.9%,99.3%,101%,89.9%,95.8%,103%,103%,96%,104%,101%,101%,143%,103%,94.2%,97.9%,98.9%,96.7%,102%,101%,102%,98.1%,> 10 µM,> 10 µM,> 10 µM,> 10 µM,> 10 µM
Nc1c(-c2cccc(C(F)(F)F)c2)nsc1C(=O)O [amflutizole],0,0,0,0,0,97.1%,100%,92.1%,108%,96.9%,96.2%,96.6%,99.1%,99.1%,107%,101%,99.5%,103%,96.9%,98.1%,104%,94.1%,104%,97%,104%,96.8%,97.8%,97.7%,99.1%,113%,> 10 µM,> 10 µM,> 10 µM,> 10 µM,> 10 µM
O=C(O)CCCCCCNC1c2ccccc2CCc2ccccc21 [amineptine],0,0,0,0,0,109%,102%,93%,98.8%,105%,90.6%,99.7%,99%,103%,110%,98.8%,101%,97.9%,99%,98.9%,101%,95.3%,111%,96.2%,102%,104%,107%,99%,100%,97.2%,> 10 µM,> 10 µM,> 10 µM,> 10 µM,> 10 µM
Nc1nccs1 [aminothiazole],0,0,0,0,0,104%,100%,94.7%,97.2%,97.4%,102%,94.8%,97.8%,98.9%,100%,102%,98.6%,94.2%,99.8%,97.1%,102%,105%,100%,109%,91.3%,105%,106%,98.2%,93.4%,95.4%,> 10 µM,> 10 µM,> 10 µM,> 10 µM,> 10 µM
O=C(O)c1cccc(-c2noc(-c3ccccc3F)n2)c1 [ataluren],0,0,0,0,0,101%,107%,105%,97.2%,90.9%,97%,101%,98.6%,111%,94.3%,96.6%,99.4%,95.7%,101%,93.5%,98.5%,89.7%,104%,94.2%,99.6%,103%,102%,106%,106%,95.7%,> 10 µM,> 10 µM,> 10 µM,> 10 µM,> 10 µM
Oc1ccc2ccccc2c1 [beta-naphthol],0,0.6,0,0,0,94%,90.7%,102%,89.1%,99.4%,102%,90.3%,99.1%,89.8%,83.2%,102%,99.6%,104%,97.2%,104%,114%,98.4%,104%,114%,116%,94.4%,99.5%,98.7%,104%,90.7%,> 10 µM,> 10 µM,> 10 µM,> 10 µM,> 10 µM
C[C@H]1C[C@H]2[C@@H]3CCC4=CC(=O)C=C[C@]4(C)[C@@]3(F)[C@@H](O)C[C@]2(C)[C@@]1(O)C(=O)CO [betamethasone],1.3 ± 1.7,0.25 ± 0.35,0,0,0.1 ± 0.14,101 ± 4.1%,97 ± 4.6%,99.4 ± 11%,90.2 ± 15%,89.7 ± 4.4%,101 ± 2.2%,92.85 ± 0.49%,84.5 ± 5.2%,99.1 ± 5.8%,92.9 ± 12%,99.6 ± 3.8%,101 ± 1.3%,94.5 ± 2.9%,97.5 ± 2.7%,92.4 ± 1.4%,106 ± 9.1%,107 ± 7.4%,95.05 ± 0.49%,102 ± 3.6%,95 ± 3.5%,97 ± 4.5%,91.7 ± 5.5%,94.5 ± 8.6%,95.4 ± 4.1%,92.1 ± 6.5%,> 10 µM,> 10 µM,> 10 µM,> 10 µM,> 10 µM
CC(C)(C)N1CCC(c2ccccc2)(c2ccccc2)CC1 [budipine],0,0.3,0,0,0,88.8%,95.8%,101%,102%,88.9%,98.4%,103%,86.3%,102%,82.7%,91.9%,99%,97.3%,102%,97.6%,96.9%,97.3%,101%,101%,96.7%,96.1%,91.8%,91.9%,93.9%,98.8%,> 10 µM,> 10 µM,> 10 µM,> 10 µM,> 10 µM
CCCCNc1cc(C(=O)O)cc(S(N)(=O)=O)c1Oc1ccccc1 [bumetanide],0,0,0,0,0,103%,98.5%,104%,107%,94.6%,90.2%,103%,103%,94.1%,96.7%,97.9%,101%,98.9%,99.1%,102%,95%,93.1%,104%,95.4%,95.1%,117%,108%,107%,95.6%,99%,> 10 µM,> 10 µM,> 10 µM,> 10 µM,> 10 µM
CC12CCC(CC1=O)C2(C)C (stereo not drawn) [camphor-(+)],0.15 ± 0.21,0,0,0,0,95.8 ± 3.6%,104 ± 13%,96.1 ± 0.42%,98.2 ± 1.8%,96.6 ± 14%,95.2 ± 8.1%,90.5 ± 0.99%,99.2 ± 3.3%,93.8 ± 7.3%,99.3 ± 6.2%,101 ± 2.5%,101 ± 6%,99.8 ± 0.42%,101 ± 5.5%,99.8 ± 3.1%,86%,101%,102%,112%,112%,96.9 ± 3.2%,98.5 ± 2.7%,99.2 ± 4.2%,96.7 ± 2%,101 ± 9.5%,> 10 µM,> 10 µM,> 10 µM,> 10 µM,> 10 µM
CCN(CC)CCN[C@@H](C(=O)OCCC(C)C)c1ccccc1 [camylofine-chlorhydrate],0,1,0,0,0,106%,105%,98.6%,97.3%,108%,84.4%,82%,85.5%,100%,85.6%,90.7%,99.7%,94.8%,101%,108%,96.3%,107%,102%,97.5%,99%,94.9%,93%,95.7%,91.1%,103%,> 10 µM,> 10 µM,> 10 µM,> 10 µM,> 10 µM
C[C@@H]1CC[C@H]2C(C)(C)[C@H]3C[C@@]12CC[C@@]3(C)O [cedrol],0,0,0,0,0,97.7%,102%,98%,104%,118%,97.5%,88.4%,100%,99.4%,104%,99.9%,94.5%,101%,97.1%,101%,96.9%,97.1%,103%,87.7%,102%,94.5%,96.5%,91.2%,94.7%,103%,> 10 µM,> 10 µM,> 10 µM,> 10 µM,> 10 µM
